From ChEMBL document CHEMBL5365427, “Discovery and Structural Optimization of Covalent ZAP-70 Kinase Inhibitors against Psoriasis” (J Med Chem, 2023)
pIC50: −log10 of the molar value. Activity calls are given as the source filed them. The rule behind the calls is not given here.

Columns and labels:
Mus musculus [1] = assay: Anti-inflammatory activity in imiquimod-induced BALB/c mouse psoriasis model assessed as […] in skin thickness at TOP administration, 2 % applied for 7 days by hematoxylin and eosin staining based assay; format: functional, organism-based; settings: time 7.0 day
Mus musculus [2] = assay: Anti-inflammatory activity in imiquimod-induced BALB/c mouse psoriasis model assessed as reduction in skin inflammation at TOP administration, 2 % applied for 7 days; format: functional, organism-based; settings: time 7.0 day
[3] = biological target: T1, Serine/threonine-protein kinase PLK4 (Homo sapiens) (UniProt O00444); assay: Inhibition of PLK4 (unknown origin) at 1 uM relative to control
T1 sequence (whole entry): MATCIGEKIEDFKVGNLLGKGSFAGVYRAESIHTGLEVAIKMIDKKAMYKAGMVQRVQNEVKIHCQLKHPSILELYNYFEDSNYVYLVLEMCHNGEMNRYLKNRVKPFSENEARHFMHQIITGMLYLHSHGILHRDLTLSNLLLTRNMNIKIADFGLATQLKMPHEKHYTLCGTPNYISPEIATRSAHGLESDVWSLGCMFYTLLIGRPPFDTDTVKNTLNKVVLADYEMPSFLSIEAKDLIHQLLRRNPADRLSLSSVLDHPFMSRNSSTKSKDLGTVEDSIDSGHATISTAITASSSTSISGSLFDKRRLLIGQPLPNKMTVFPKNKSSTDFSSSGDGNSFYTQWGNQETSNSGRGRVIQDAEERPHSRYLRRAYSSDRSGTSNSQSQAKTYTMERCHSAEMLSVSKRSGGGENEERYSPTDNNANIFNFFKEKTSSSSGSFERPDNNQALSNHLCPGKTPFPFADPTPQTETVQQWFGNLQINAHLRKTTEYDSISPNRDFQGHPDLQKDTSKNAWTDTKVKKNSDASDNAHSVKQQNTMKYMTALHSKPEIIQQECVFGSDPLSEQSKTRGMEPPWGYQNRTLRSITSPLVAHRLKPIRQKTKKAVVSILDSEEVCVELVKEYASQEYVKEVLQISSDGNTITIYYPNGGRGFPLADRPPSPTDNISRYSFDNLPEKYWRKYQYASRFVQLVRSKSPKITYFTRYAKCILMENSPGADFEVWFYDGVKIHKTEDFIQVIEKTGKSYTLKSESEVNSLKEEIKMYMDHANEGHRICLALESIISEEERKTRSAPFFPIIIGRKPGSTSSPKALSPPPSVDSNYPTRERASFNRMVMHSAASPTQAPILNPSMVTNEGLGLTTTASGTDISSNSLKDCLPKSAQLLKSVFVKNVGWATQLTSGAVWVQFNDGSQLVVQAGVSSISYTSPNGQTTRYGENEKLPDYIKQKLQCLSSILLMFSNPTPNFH

Splenocyte = assay: Immunosuppressive activity in BALB/c mouse Splenocyte assessed as inhibition of concanavalin A induced T-cell proliferation incubated for 48 hrs by [3H]-thymidine incorporation based beta scintillation counter analysis; format: functional

inhibition [3]: > 90%
SMILES: C=CC(=O)Nc1cc(CNc2nc(Nc3ccc(N4CCOCC4)c(OC)c3)c(C(N)=O)c3nccn23)ccc1Cl
Activity (Mus musculus [1]): Active | Activity (Mus musculus [2]): Active | pIC50 (Splenocyte): 7.19
